Patent US20180000085A1, “USE OF PICOLINAMIDE COMPOUNDS WITH FUNGICIDAL ACTIVITY” (DOW AGROSCIENCES LLC, priority 2014, published 2018)

Experiments:
Format in all cases: in vivo
Cercospora beticola = experiment: Leaf spot of sugar beets (CERCBE) disease control; conditions: 100 ppm; 1 Day Protectant; sugar beet
Description: All fungicides were evaluated using the aforementioned method for their activity vs. all target diseases, unless stated otherwise. Wheat leaf blotch and brown rust activity were also evaluated using track spray applications, in which case the fungicides were formulated as EC formulations, containing 0.1% Trycol 5941 in the spray solutions. Wheat plants (variety Yuma) were grown from seed in a greenhouse in 50% mineral soil/50% soil-less Metro mix until the first leaf was fully emerged, with 7-10 seedlings per pot. These plants were inoculated with an aqueous spore suspension of Zymoseptoria tritici either prior to or after fungicide treatments. After inoculation the plants were kept in 100% relative humidity (one day in a dark dew chamber followed by two to three days in a lighted dew chamber at 20° C.) to permit spores to germinate and infect the leaf. The plants were then transferred to a greenhouse set at 20° C. for disease to develop. When disease symptoms were fully expressed on the 1st leaves of untreated plants, infection levels were assessed on a scale of 0 to 100 percent disease severity. Percent disease control was calculated using the ratio of disease severity on treated plants relative to untreated plants. Example F: Evaluation of Fungicidal Activity: Leaf Spot of Sugar Beets (Cercospora beticola; Bayer Code CERCBE) Sugar beet plants (variety HH88) were grown in soil-less Metro mix and trimmed regularly to maintain a uniform plant size prior to test. Plants were inoculated with a spore suspension 24 hr after fungicide treatments. Inoculated plants were kept in a dew chamber at 22° C. for 48 hr then incubated in a greenhouse set at 24° C. under a clear plastic hood with bottom ventilation until disease symptoms were fully expressed. Fungicide formulation, application and disease assessment on the sprayed leaves followed the procedures as described in the Example A.

Phakopsora pachyrhizi = experiment: Asian soybean rust (PHAKPA) disease control; design: key: A: > 80; B: ≤ 80; C: Not Tested; D: No Activity Observed in the Reported Assay; conditions: 25 ppm; for PHAKPA disease control, 1DP: 1 Day Protectant; for PHAKPA disease control, 3DC: 3 Day Curative
Rhyncosporium secalis = experiment: Barley scald (RHYNSE) disease control; conditions: 100 ppm, 1 Day Protectant
Description: All fungicides were evaluated using the aforementioned method for their activity vs. all target diseases, unless stated otherwise. Wheat leaf blotch and brown rust activity were also evaluated using track spray applications, in which case the fungicides were formulated as EC formulations, containing 0.1% Trycol 5941 in the spray solutions. Wheat plants (variety Yuma) were grown from seed in a greenhouse in 50% mineral soil/50% soil-less Metro mix until the first leaf was fully emerged, with 7-10 seedlings per pot. These plants were inoculated with an aqueous spore suspension of Zymoseptoria tritici either prior to or after fungicide treatments. After inoculation the plants were kept in 100% relative humidity (one day in a dark dew chamber followed by two to three days in a lighted dew chamber at 20° C.) to permit spores to germinate and infect the leaf. The plants were then transferred to a greenhouse set at 20° C. for disease to develop. When disease symptoms were fully expressed on the 1st leaves of untreated plants, infection levels were assessed on a scale of 0 to 100 percent disease severity. Percent disease control was calculated using the ratio of disease severity on treated plants relative to untreated plants. Example H: Evaluation of Fungicidal Activity: Barley Scald (Rhyncosporium secalis; Bayer Code […]) Barley seedlings (variety Harrington) were propagated in soil-less Metro mix, with each pot having 8 to 12 plants, and used in the test when first leaf was fully emerged. Test plants were inoculated by an aqueous spore suspension of Rhyncosporium secalis 24 hr after fungicide treatments. After inoculation the plants were kept in a dew room at 22° C. with 100% relative humidity for 48 hr. The plants were then transferred to a greenhouse set at 20° C. for disease to develop. Fungicide formulation, application and disease assessment on the sprayed leaves followed the procedures as described in the Example A.

Pyricularia oryzae = conditions: 100 ppm; 1 Day Protectant; rice
[1] = tested on: Colletotrichum lagenarium; experiment: Cucumber anthracnose (COLLLA) disease control; conditions: 100 ppm, 1 Day Protectant
Description: All fungicides were evaluated using the aforementioned method for their activity vs. all target diseases, unless stated otherwise. Wheat leaf blotch and brown rust activity were also evaluated using track spray applications, in which case the fungicides were formulated as EC formulations, containing 0.1% Trycol 5941 in the spray solutions. Wheat plants (variety Yuma) were grown from seed in a greenhouse in 50% mineral soil/50% soil-less Metro mix until the first leaf was fully emerged, with 7-10 seedlings per pot. These plants were inoculated with an aqueous spore suspension of Zymoseptoria tritici either prior to or after fungicide treatments. After inoculation the plants were kept in 100% relative humidity (one day in a dark dew chamber followed by two to three days in a lighted dew chamber at 20° C.) to permit spores to germinate and infect the leaf. The plants were then transferred to a greenhouse set at 20° C. for disease to develop. When disease symptoms were fully expressed on the 1st leaves of untreated plants, infection levels were assessed on a scale of 0 to 100 percent disease severity. Percent disease control was calculated using the ratio of disease severity on treated plants relative to untreated plants. Example K: Evaluation of Fungicidal Activity: Cucumber Anthracnose (Colletotrichum lagenarium; Bayer Code COLLLA) Cucumber seedlings (variety Bush Pickle) were propagated in soil-less Metro mix, with each pot having one plant, and used in the test when 12 to 14 days old. Test plants were inoculated with an aqueous spore suspension of Colletotrichum lagenarium 24 hr after fungicide treatments. After inoculation the plants were kept in a dew room at 22° C. with 100% relative humidity for 48 hr to permit spores to germinate and infect the leaf. The plants were then transferred to a growth room set at 22° C. for disease to develop. Fungicide formulation, application and disease assessment on the sprayed leaves followed the procedures as described in the Example A.

COc1ccnc(C(=O)N[C@H](C)C(=O)O[C@H](C)[C@@H](Oc2ccccc2)c2ccccc2)c1OCOC(C)=O [Cmpd 549]
CERCBE disease control, 1DP (Cercospora beticola): B (≤ 80) | PHAKPA disease control, 1DP (Phakopsora pachyrhizi): D | PHAKPA disease control, 3DC (Phakopsora pachyrhizi): D

COc1ccnc(C(=O)N[C@@H](C)C(=O)O[C@@H](C)[C@@H](Oc2ccccc2)C(C)C)c1OCOC(C)=O [Cmpd 552]
CERCBE disease control, 1DP (Cercospora beticola): B (≤ 80) | PHAKPA disease control, 1DP (Phakopsora pachyrhizi): A (> 80) | PHAKPA disease control, 3DC (Phakopsora pachyrhizi): B (≤ 80)

COc1ccnc(C(=O)N[C@@H](C)C(=O)O[C@@H](C)[C@H](Oc2ccccc2)C2CCCC2)c1OCOC(C)=O [Cmpd 556]
CERCBE disease control, 1DP (Cercospora beticola): A (> 80) | RHYNSE disease control, 1DP (Rhyncosporium secalis): B (≤ 80) | PYRIOR disease control, 1DP (Pyricularia oryzae): A (> 80) | PHAKPA disease control, 1DP (Phakopsora pachyrhizi): A (> 80) | PHAKPA disease control, 3DC (Phakopsora pachyrhizi): B (≤ 80) | COLLLA disease control, 1DP [1]: A (> 80)

COc1ccnc(C(=O)N[C@@H](C)C(=O)O[C@@H](C)[C@@H](CC(C)C)Oc2ccccc2)c1OCOC(C)=O [Cmpd 557]
CERCBE disease control, 1DP (Cercospora beticola): B (≤ 80) | PHAKPA disease control, 1DP (Phakopsora pachyrhizi): A (> 80) | PHAKPA disease control, 3DC (Phakopsora pachyrhizi): B (≤ 80)

COc1ccnc(C(=O)N[C@H](C)C(=O)O[C@@H](C)[C@H](Oc2ccccc2)C(C)C)c1OCOC(C)=O [Cmpd 558]
CERCBE disease control, 1DP (Cercospora beticola): B (≤ 80) | PHAKPA disease control, 1DP (Phakopsora pachyrhizi): B (≤ 80) | PHAKPA disease control, 3DC (Phakopsora pachyrhizi): D

COc1ccnc(C(=O)N[C@H](C)C(=O)O[C@@H](C)[C@@H](Oc2ccccc2)C(C)C)c1OCOC(C)=O [Cmpd 559]
CERCBE disease control, 1DP (Cercospora beticola): B (≤ 80) | PHAKPA disease control, 1DP (Phakopsora pachyrhizi): B (≤ 80) | PHAKPA disease control, 3DC (Phakopsora pachyrhizi): B (≤ 80)

COc1ccnc(C(=O)N[C@H](C)C(=O)O[C@H](C)[C@H](Oc2ccccc2)C(C)C)c1OCOC(C)=O [Cmpd 560]
CERCBE disease control, 1DP (Cercospora beticola): B (≤ 80) | PHAKPA disease control, 1DP (Phakopsora pachyrhizi): B (≤ 80) | PHAKPA disease control, 3DC (Phakopsora pachyrhizi): D

COc1ccnc(C(=O)N[C@@H](C)C(=O)O[C@@H](C)[C@H](Oc2cccc(Cl)c2)C(C)C)c1OC(C)=O [Cmpd 566]
CERCBE disease control, 1DP (Cercospora beticola): B (≤ 80) | RHYNSE disease control, 1DP (Rhyncosporium secalis): A (> 80) | PHAKPA disease control, 1DP (Phakopsora pachyrhizi): A (> 80) | PHAKPA disease control, 3DC (Phakopsora pachyrhizi): B (≤ 80) | COLLLA disease control, 1DP [1]: A (> 80)

COc1ccnc(C(=O)N[C@@H](C)C(=O)O[C@@H](C)[C@H](Oc2cccc(F)c2)c2ccccc2)c1OCOC(C)=O [Cmpd 574]
CERCBE disease control, 1DP (Cercospora beticola): A (> 80) | RHYNSE disease control, 1DP (Rhyncosporium secalis): A (> 80) | PYRIOR disease control, 1DP (Pyricularia oryzae): A (> 80) | PHAKPA disease control, 1DP (Phakopsora pachyrhizi): A (> 80) | PHAKPA disease control, 3DC (Phakopsora pachyrhizi): B (≤ 80) | COLLLA disease control, 1DP [1]: A (> 80)

COc1ccnc(C(=O)N[C@@H](C)C(=O)O[C@@H](C)[C@H](Oc2cc(F)cc(Cl)c2)C(C)C)c1OCOC(C)=O [Cmpd 617]
CERCBE disease control, 1DP (Cercospora beticola): B (≤ 80) | RHYNSE disease control, 1DP (Rhyncosporium secalis): B (≤ 80) | PHAKPA disease control, 1DP (Phakopsora pachyrhizi): A (> 80) | PHAKPA disease control, 3DC (Phakopsora pachyrhizi): B (≤ 80) | COLLLA disease control, 1DP [1]: A (> 80)

CCC(C)C(Oc1ccccc1)C(C)OC(=O)C(C)NC(=O)c1nccc(OC)c1OC(C)=O (stereo not drawn) [Cmpd 691]
CERCBE disease control, 1DP (Cercospora beticola): B (≤ 80) | RHYNSE disease control, 1DP (Rhyncosporium secalis): B (≤ 80) | PHAKPA disease control, 1DP (Phakopsora pachyrhizi): A (> 80) | PHAKPA disease control, 3DC (Phakopsora pachyrhizi): B (≤ 80) | COLLLA disease control, 1DP [1]: A (> 80)
